Experimental data reported in US9518061B2, “Substituted pyrazolylpyrazole derivative and use of same as herbicide” (KYOYU AGRI CO., LTD., priority 2013, dated 2016).

Key:
Type in all cases: in vivo
[1] = system: Rice plants; experiment: Paddy herbicidal activity test, phytotoxicity to transplanted rice; settings: rice transplanted in 2.0 leaf stage, 30 days
Description: (§1) 1. Paddy Herbicidal Activity Test
(§2) Rice paddy soil was filled into a 1/10000 are pot followed by the addition of suitable amounts of water and chemical fertilizer, kneading, seeding with Echinochloa crus-galli, Monochoria vaginalis and Scirpus juncoides and maintaining in an irrigated state at a water depth of 3 cm.
(§3) Wettable powder of Target Compound (I) shown in Table 1 prepared in compliance with the preparation examples were diluted with a suitable amount of water, rice plants in the 2.0 leaf stage were transplanted during 3.5 leaf stage of Echinochloa crus-galli, and treated by dropping in chemical in the prescribed amount per are using a pipette.
(§4) After treating for 30 days in a glass greenhouse at an average atmospheric temperature of 30° C., the herbicidal efficacy thereof was investigated.
(§5) Evaluation of herbicidal efficacy was carried out by comparing growth inhibition rate (%) with an untreated group, while evaluation of phytotoxicity was carried out by comparing growth inhibition rate (%) with the state of a complete eradication group, and were evaluated at 11 levels indicated below.

[2] = system: Echinochloa crus-galli; experiment: Paddy herbicidal activity test; settings: irrigated paddy pot, treated at 3.5 leaf stage of Echinochloa crus-galli, 30 days
Description: as §1, §2, §3, §4, §5

[3] = system: Scirpus juncoides; experiment: Paddy herbicidal activity test; settings: irrigated paddy pot, 30 days
Description: as §1, §2, §3, §4, §5

[4] = system: Monochoria vaginalis; experiment: Paddy herbicidal activity test; settings: irrigated paddy pot, 30 days
Description: as §1, §2, §3, §4, §5

COCCCN(C(=O)C(F)(F)F)c1c(C#N)cnn1-c1nn2c(c1Cl)CCCC2 [Compound 6]
phytotoxicity (growth inhibition rate level) Rice plants ([1]; 1g a.i./10a): 0 (0 (exponent): 0% to less than 10% (growth inhibition rate)) | phytotoxicity (growth inhibition rate level) Rice plants ([1]; 5g a.i./10a): 0 (0 (exponent): 0% to less than 10% (growth inhibition rate)) | herbicidal efficacy (growth inhibition rate level) Echinochloa crus-galli ([2]; 1g a.i./10a): 9 (90% to less than 100%) | herbicidal efficacy (growth inhibition rate level) Echinochloa crus-galli ([2]; 5g a.i./10a): 10 (100%) | herbicidal efficacy (growth inhibition rate level) Scirpus juncoides ([3]; 1g a.i./10a): 7 (70% to less than 80%) | herbicidal efficacy (growth inhibition rate level) Scirpus juncoides ([3]; 5g a.i./10a): 8 (80% to less than 90%) | herbicidal efficacy (growth inhibition rate level) Monochoria vaginalis ([4]; 1g a.i./10a): 8 (80% to less than 90%) | herbicidal efficacy (growth inhibition rate level) Monochoria vaginalis ([4]; 5g a.i./10a): 9 (90% to less than 100%)

COCCN(C(=O)C(F)(F)F)c1c(C#N)cnn1-c1nn2c(c1Br)CCCC2 [Compound 13]
phytotoxicity (growth inhibition rate level) Rice plants ([1]; 1g a.i./10a): 0 (0 (exponent): 0% to less than 10% (growth inhibition rate)) | phytotoxicity (growth inhibition rate level) Rice plants ([1]; 5g a.i./10a): 1 (10% to less than 20%) | herbicidal efficacy (growth inhibition rate level) Echinochloa crus-galli ([2]; 1g a.i./10a): 9 (90% to less than 100%) | herbicidal efficacy (growth inhibition rate level) Echinochloa crus-galli ([2]; 5g a.i./10a): 9 (90% to less than 100%) | herbicidal efficacy (growth inhibition rate level) Scirpus juncoides ([3]; 1g a.i./10a): 7 (70% to less than 80%) | herbicidal efficacy (growth inhibition rate level) Scirpus juncoides ([3]; 5g a.i./10a): 8 (80% to less than 90%) | herbicidal efficacy (growth inhibition rate level) Monochoria vaginalis ([4]; 1g a.i./10a): 8 (80% to less than 90%) | herbicidal efficacy (growth inhibition rate level) Monochoria vaginalis ([4]; 5g a.i./10a): 9 (90% to less than 100%)

N#Cc1cnn(-c2nn3c(c2Cl)CCCC3)c1N(CC(F)(F)F)C(=O)C(F)(F)F [Compound 8]
phytotoxicity (growth inhibition rate level) Rice plants ([1]; 1g a.i./10a): 0 (0 (exponent): 0% to less than 10% (growth inhibition rate)) | phytotoxicity (growth inhibition rate level) Rice plants ([1]; 5g a.i./10a): 0 (0 (exponent): 0% to less than 10% (growth inhibition rate)) | herbicidal efficacy (growth inhibition rate level) Echinochloa crus-galli ([2]; 1g a.i./10a): 8 (80% to less than 90%) | herbicidal efficacy (growth inhibition rate level) Echinochloa crus-galli ([2]; 5g a.i./10a): 9 (90% to less than 100%) | herbicidal efficacy (growth inhibition rate level) Scirpus juncoides ([3]; 1g a.i./10a): 9 (90% to less than 100%) | herbicidal efficacy (growth inhibition rate level) Scirpus juncoides ([3]; 5g a.i./10a): 10 (100%) | herbicidal efficacy (growth inhibition rate level) Monochoria vaginalis ([4]; 1g a.i./10a): 9 (90% to less than 100%) | herbicidal efficacy (growth inhibition rate level) Monochoria vaginalis ([4]; 5g a.i./10a): 9 (90% to less than 100%)

COCCN(C(=O)C(F)(F)F)c1c([N+](=O)[O-])cnn1-c1nn2c(c1Br)CCCC2 [Compound 23]
phytotoxicity (growth inhibition rate level) Rice plants ([1]; 1g a.i./10a): 0 (0 (exponent): 0% to less than 10% (growth inhibition rate)) | phytotoxicity (growth inhibition rate level) Rice plants ([1]; 5g a.i./10a): 0 (0 (exponent): 0% to less than 10% (growth inhibition rate)) | herbicidal efficacy (growth inhibition rate level) Echinochloa crus-galli ([2]; 1g a.i./10a): 7 (70% to less than 80%) | herbicidal efficacy (growth inhibition rate level) Echinochloa crus-galli ([2]; 5g a.i./10a): 8 (80% to less than 90%) | herbicidal efficacy (growth inhibition rate level) Scirpus juncoides ([3]; 1g a.i./10a): 8 (80% to less than 90%) | herbicidal efficacy (growth inhibition rate level) Scirpus juncoides ([3]; 5g a.i./10a): 8 (80% to less than 90%) | herbicidal efficacy (growth inhibition rate level) Monochoria vaginalis ([4]; 1g a.i./10a): 8 (80% to less than 90%) | herbicidal efficacy (growth inhibition rate level) Monochoria vaginalis ([4]; 5g a.i./10a): 8 (80% to less than 90%)

COCCCN(C(=O)C(F)(F)F)c1c(C#N)cnn1-c1nn2c(c1Br)CCCC2 [Compound 15]
phytotoxicity (growth inhibition rate level) Rice plants ([1]; 1g a.i./10a): 0 (0 (exponent): 0% to less than 10% (growth inhibition rate)) | phytotoxicity (growth inhibition rate level) Rice plants ([1]; 5g a.i./10a): 1 (10% to less than 20%) | herbicidal efficacy (growth inhibition rate level) Echinochloa crus-galli ([2]; 1g a.i./10a): 9 (90% to less than 100%) | herbicidal efficacy (growth inhibition rate level) Echinochloa crus-galli ([2]; 5g a.i./10a): 10 (100%) | herbicidal efficacy (growth inhibition rate level) Scirpus juncoides ([3]; 1g a.i./10a): 8 (80% to less than 90%) | herbicidal efficacy (growth inhibition rate level) Scirpus juncoides ([3]; 5g a.i./10a): 9 (90% to less than 100%) | herbicidal efficacy (growth inhibition rate level) Monochoria vaginalis ([4]; 1g a.i./10a): 8 (80% to less than 90%) | herbicidal efficacy (growth inhibition rate level) Monochoria vaginalis ([4]; 5g a.i./10a): 8 (80% to less than 90%)

N#Cc1cnn(-c2nn3c(c2Cl)CCCC3)c1N(CCC(F)(F)F)C(=O)C(F)(F)C(F)(F)F [Compound 7]
phytotoxicity (growth inhibition rate level) Rice plants ([1]; 1g a.i./10a): 0 (0 (exponent): 0% to less than 10% (growth inhibition rate)) | phytotoxicity (growth inhibition rate level) Rice plants ([1]; 5g a.i./10a): 0 (0 (exponent): 0% to less than 10% (growth inhibition rate)) | herbicidal efficacy (growth inhibition rate level) Echinochloa crus-galli ([2]; 1g a.i./10a): 9 (90% to less than 100%) | herbicidal efficacy (growth inhibition rate level) Echinochloa crus-galli ([2]; 5g a.i./10a): 9 (90% to less than 100%) | herbicidal efficacy (growth inhibition rate level) Scirpus juncoides ([3]; 1g a.i./10a): 8 (80% to less than 90%) | herbicidal efficacy (growth inhibition rate level) Scirpus juncoides ([3]; 5g a.i./10a): 8 (80% to less than 90%) | herbicidal efficacy (growth inhibition rate level) Monochoria vaginalis ([4]; 1g a.i./10a): 7 (70% to less than 80%) | herbicidal efficacy (growth inhibition rate level) Monochoria vaginalis ([4]; 5g a.i./10a): 9 (90% to less than 100%)

N#Cc1cnn(-c2nn3c(c2Br)CCCC3)c1N(CCC(F)(F)F)C(=O)C(F)(F)F [Compound 18]
phytotoxicity (growth inhibition rate level) Rice plants ([1]; 1g a.i./10a): 0 (0 (exponent): 0% to less than 10% (growth inhibition rate)) | phytotoxicity (growth inhibition rate level) Rice plants ([1]; 5g a.i./10a): 1 (10% to less than 20%) | herbicidal efficacy (growth inhibition rate level) Echinochloa crus-galli ([2]; 1g a.i./10a): 9 (90% to less than 100%) | herbicidal efficacy (growth inhibition rate level) Echinochloa crus-galli ([2]; 5g a.i./10a): 10 (100%) | herbicidal efficacy (growth inhibition rate level) Scirpus juncoides ([3]; 1g a.i./10a): 9 (90% to less than 100%) | herbicidal efficacy (growth inhibition rate level) Scirpus juncoides ([3]; 5g a.i./10a): 9 (90% to less than 100%) | herbicidal efficacy (growth inhibition rate level) Monochoria vaginalis ([4]; 1g a.i./10a): 7 (70% to less than 80%) | herbicidal efficacy (growth inhibition rate level) Monochoria vaginalis ([4]; 5g a.i./10a): 8 (80% to less than 90%)

CCOCCN(C(=O)C(F)(F)F)c1c(C#N)cnn1-c1nn2c(c1Cl)CCCC2 [Compound 5]
phytotoxicity (growth inhibition rate level) Rice plants ([1]; 1g a.i./10a): 0 (0 (exponent): 0% to less than 10% (growth inhibition rate)) | phytotoxicity (growth inhibition rate level) Rice plants ([1]; 5g a.i./10a): 1 (10% to less than 20%) | herbicidal efficacy (growth inhibition rate level) Echinochloa crus-galli ([2]; 1g a.i./10a): 9 (90% to less than 100%) | herbicidal efficacy (growth inhibition rate level) Echinochloa crus-galli ([2]; 5g a.i./10a): 9 (90% to less than 100%) | herbicidal efficacy (growth inhibition rate level) Scirpus juncoides ([3]; 1g a.i./10a): 8 (80% to less than 90%) | herbicidal efficacy (growth inhibition rate level) Scirpus juncoides ([3]; 5g a.i./10a): 9 (90% to less than 100%) | herbicidal efficacy (growth inhibition rate level) Monochoria vaginalis ([4]; 1g a.i./10a): 8 (80% to less than 90%) | herbicidal efficacy (growth inhibition rate level) Monochoria vaginalis ([4]; 5g a.i./10a): 8 (80% to less than 90%)

N#Cc1cnn(-c2nn3c(c2Cl)CCCC3)c1N(CCCCl)C(=O)C(F)(F)F [Compound 3]
phytotoxicity (growth inhibition rate level) Rice plants ([1]; 1g a.i./10a): 1 (10% to less than 20%) | phytotoxicity (growth inhibition rate level) Rice plants ([1]; 5g a.i./10a): 1 (10% to less than 20%) | herbicidal efficacy (growth inhibition rate level) Echinochloa crus-galli ([2]; 1g a.i./10a): 8 (80% to less than 90%) | herbicidal efficacy (growth inhibition rate level) Echinochloa crus-galli ([2]; 5g a.i./10a): 9 (90% to less than 100%) | herbicidal efficacy (growth inhibition rate level) Scirpus juncoides ([3]; 1g a.i./10a): 8 (80% to less than 90%) | herbicidal efficacy (growth inhibition rate level) Scirpus juncoides ([3]; 5g a.i./10a): 8 (80% to less than 90%) | herbicidal efficacy (growth inhibition rate level) Monochoria vaginalis ([4]; 1g a.i./10a): 7 (70% to less than 80%) | herbicidal efficacy (growth inhibition rate level) Monochoria vaginalis ([4]; 5g a.i./10a): 8 (80% to less than 90%)

CCOCCN(C(=O)C(F)(F)F)c1c(C#N)cnn1-c1nn2c(c1Br)CCCC2 [Compound 14]
phytotoxicity (growth inhibition rate level) Rice plants ([1]; 1g a.i./10a): 1 (10% to less than 20%) | phytotoxicity (growth inhibition rate level) Rice plants ([1]; 5g a.i./10a): 1 (10% to less than 20%) | herbicidal efficacy (growth inhibition rate level) Echinochloa crus-galli ([2]; 1g a.i./10a): 9 (90% to less than 100%) | herbicidal efficacy (growth inhibition rate level) Echinochloa crus-galli ([2]; 5g a.i./10a): 9 (90% to less than 100%) | herbicidal efficacy (growth inhibition rate level) Scirpus juncoides ([3]; 1g a.i./10a): 8 (80% to less than 90%) | herbicidal efficacy (growth inhibition rate level) Scirpus juncoides ([3]; 5g a.i./10a): 9 (90% to less than 100%) | herbicidal efficacy (growth inhibition rate level) Monochoria vaginalis ([4]; 1g a.i./10a): 7 (70% to less than 80%) | herbicidal efficacy (growth inhibition rate level) Monochoria vaginalis ([4]; 5g a.i./10a): 8 (80% to less than 90%)
